molecular target: T1, human mPGES-1 (Homo sapiens, UniProt O14684); test: Microsomal prostaglandin E synthase biochemical assay; conditions: microsome preparation containing human mPGES-1; substrate PGH2 10.8 μM, GSH 2.5 mM, pH 6.8; PGE2 by HTRF; average of at least n=2
T1 construct: host or cells: microsomes
T1 sequence (O14684 1-152): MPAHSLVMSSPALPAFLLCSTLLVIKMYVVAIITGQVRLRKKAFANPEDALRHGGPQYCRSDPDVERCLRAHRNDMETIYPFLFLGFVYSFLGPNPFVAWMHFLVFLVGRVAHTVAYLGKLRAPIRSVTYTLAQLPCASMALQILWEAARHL
Protocol: Compounds were tested as inhibitors of microsomal prostaglandin E synthase activity in microsomal prostaglandin E synthase assays and whole cell assays. These assays measure prostaglandin E2 (PGE2) synthesis which is taken as a measure of prostaglandin E synthase activity. Microsomal prostaglandin E synthase biochemical assays used microsomal prostaglandin E synthase-1 in microsomal preparations. The source of the microsomes can be for example interleukin-1β-stimulated human A549 cells (which express human mPGES-1) or Sf9 cells transfected with plasmids encoding human mPGES-1 cDNA.
A solution of test compound was added to a diluted microsome preparation containing is human mPGES-1 and pre-incubated for 15 minutes in potassium phosphate buffer pH 6.8 with cofactor glutathione (GSH). Corresponding solutions without test compound were used as positive controls, and corresponding solutions without test compound and without microsomes were used as negative controls. The enzymatic reaction was then started by addition of the substrate PGH2 in an organic solution (dry acetonitrile).
The reaction was stopped after one minute by adding an acidic solution (pH 1.9) of ferric chloride and citrate (final concentrations 7 mM and 47 mM respectively), by which the PGH2 was sequestered (the PGH2 is reduced to mainly 12-hydroxy heptadecatrineoic acid (12-HHT) which is not detected by the subsequent PGE2 detection step). The resulting solution was then pH neutralized by addition of potassium phosphate buffer, prior to diluting an aliquot of the resulting solution in a weak potassium phosphate buffer (50 mM, pH 6.8) containing 0.2% BSA (w/v). […] The PGE2 formed was quantified by use of a commercial HTRF based kit (catalogue #62PG2PEC or #62P2APEC from Cisbio International). 100% activity was defined as the PGE2 production in positive controls subtracted by the PGE2 production in the negative controls. IC50 values were then determined using standard procedures.

| SMILES | IC50 |
| --- | --- |
| NS(=O)(=O)c1ccccc1S(=O)(=O)NC(=O)c1ccc(OCc2ccccc2)c(OCC2CC2)c1 [Example 1, 4-(Benzyloxy)-3-(cyclopropylmethoxy)-N-(2-sulfamoylphenylsulfonyl)benzamide] | 280 nM |
| COc1cc(C(=O)NS(=O)(=O)c2ccccc2S(N)(=O)=O)ccc1COc1ccc(C)cc1 [Example 2, 3-Methoxy-N-(2-sulfamoylphenylsulfonyl)-4-(p-tolyloxymethyl)benzamide] | 31 nM |
| NS(=O)(=O)c1ccccc1S(=O)(=O)NC(=O)c1ccc(C#Cc2ccccc2)c(OCC(F)F)c1 [Example 3, 3-(2,2-Difluoroethoxy)-4-(phenylethynyl)-N-(2-sulfamoylphenylsulfonyl)benzamide] | 8.2 nM |
| Cc1ccc(C#Cc2ccc(C(=O)NS(=O)(=O)c3ccccc3S(N)(=O)=O)cc2OCC(F)F)cc1 [Example 4, 3-(2,2-Difluoroethoxy)-N-(2-sulfamoylphenylsulfonyl)-4-(p-tolylethynyl)benzamide] | 5 nM |
| NS(=O)(=O)c1ccccc1S(=O)(=O)NC(=O)c1ccc(C#CC2CCCC2)c(OCC(F)F)c1 [Example 5, 4-(Cyclopentylethynyl)-3-(2,2-difluoroethoxy)-N-(2-sulfamoylphenylsulfonyl)benzamide] | 14 nM |
| CC(C)(C)C#Cc1ccc(C(=O)NS(=O)(=O)c2ccccc2S(N)(=O)=O)cc1OCC(F)F [Example 6, 3-(2,2-Difluoroethoxy)-4-(3,3-dimethylbut-1-ynyl)-N-(2-sulfamoylphenylsulfonyl)benzamide] | 25 nM |
| NS(=O)(=O)c1ccccc1S(=O)(=O)NC(=O)c1ccc(-c2cc3ccccc3o2)c(OCC(F)F)c1 [Example 7, 4-(Benzofuran-2-yl)-3-(2,2-difluoroethoxy)-N-(2-sulfamoylphenylsulfonyl)benzamide] | 4.5 nM |
| Cc1ccccc1C#Cc1ccc(C(=O)NS(=O)(=O)c2ccccc2S(N)(=O)=O)cc1 [Example 8, N-(2-Sulfamoylphenylsulfonyl)-4-(o-tolylethynyl)benzamide] | 6.4 nM |
| NS(=O)(=O)c1ccccc1S(=O)(=O)NC(=O)c1ccc(C#Cc2ccc(Cl)cc2)cc1 [Example 10, 4-((4-Chlorophenyl)ethynyl)-N-(2-sulfamoylphenylsulfonyl)benzamide] | 3.7 nM |
| NS(=O)(=O)c1ccccc1S(=O)(=O)NC(=O)c1ccc(C#Cc2ccc(F)cc2)cc1 [Example 11, 4-((4-Fluorophenyl)ethynyl)-N-(2-sulfamoylphenylsulfonyl)benzamide] | 10 nM |
| NS(=O)(=O)c1ccccc1S(=O)(=O)NC(=O)c1ccc(C#Cc2cccc(Cl)c2)cc1 [Example 12, 4-((3-Chlorophenyl)ethynyl)-N-(2-sulfamoylphenylsulfonyl)benzamide] | 4.4 nM |
| NS(=O)(=O)c1ccccc1S(=O)(=O)NC(=O)c1ccc(C#Cc2cccc(F)c2)cc1 [Example 13, 4-((3-Fluorophenyl)ethynyl)-N-(2-sulfamoylphenylsulfonyl)benzamide] | 5.7 nM |
| COc1cc(C(=O)NS(=O)(=O)c2ccccc2S(N)(=O)=O)ccc1C#Cc1ccccc1C [Example 14, 3-Methoxy-N-(2-sulfamoylphenylsulfonyl)-4-(o-tolylethynyl)benzamide] | 11 nM |
| COc1cc(C(=O)NS(=O)(=O)c2ccccc2S(N)(=O)=O)ccc1C#Cc1ccc(Cl)cc1 [Example 15, 4-((4-Chlorophenyl)ethynyl)-3-methoxy-N-(2-sulfamoylphenylsulfonyl)benzamide] | 8.4 nM |
| COc1cc(C(=O)NS(=O)(=O)c2ccccc2S(N)(=O)=O)ccc1C#Cc1ccc(F)cc1 [Example 16, 4-((4-Fluorophenyl)ethynyl)-3-methoxy-N-(2-sulfamoylphenylsulfonyl)benzamide] | 16 nM |
| COc1cc(C(=O)NS(=O)(=O)c2ccccc2S(N)(=O)=O)ccc1C#Cc1ccc(C)cc1 [Example 17, 3-Methoxy-N-(2-sulfamoylphenylsulfonyl)-4-(p-tolylethynyl)benzamide] | 6.3 nM |
| COc1cc(C(=O)NS(=O)(=O)c2ccccc2S(N)(=O)=O)ccc1C#Cc1cccc(C)c1 [Example 18, 3-Methoxy-N-(2-sulfamoylphenylsulfonyl)-4-(m-tolylethynyl)benzamide] | 12 nM |

| SMILES | IC50 |
| --- | --- |
| COc1cc(C(=O)NS(=O)(=O)c2ccccc2S(N)(=O)=O)ccc1C#Cc1cccc(Cl)c1 [Example 19, 4-((3-Chlorophenyl)ethynyl)-3-methoxy-N-(2-sulfamoylphenylsulfonyl)benzamide] | 7.3 nM |
| COc1cc(C(=O)NS(=O)(=O)c2ccccc2S(N)(=O)=O)ccc1C#Cc1cccc(F)c1 [Example 20, 4-((3-Fluorophenyl)ethynyl)-3-methoxy-N-(2-sulfamoylphenylsulfonyl)benzamide] | 12 nM |
| NS(=O)(=O)c1ccccc1S(=O)(=O)NC(=O)c1ccc(-c2cc3ccccc3o2)c(OCC2CC2)c1 [Example 21, 4-(Benzofuran-2-yl)-3-(cyclopropylmethoxy)-N-(2-sulfamoylphenylsulfonyl)benzamide] | 5 nM |
| CC(C)(C)C#Cc1ccc(C(=O)NS(=O)(=O)c2ccccc2S(N)(=O)=O)cc1OCC1CC1 [Example 22, 3-(Cyclopropylmethoxy)-4-(3,3-dimethylbut-1-ynyl)-N-(2-sulfamoylphenylsulfonyl)benzamide] | 13 nM |
| CC(C)C#Cc1ccc(C(=O)NS(=O)(=O)c2ccccc2S(N)(=O)=O)cc1OCC1CC1 [Example 23, 3-(Cyclopropylmethoxy)-4-(3-methylbut-1-ynyl)-N-(2-sulfamoylphenylsulfonyl)benzamide] | 34 nM |
| NS(=O)(=O)c1ccccc1S(=O)(=O)NC(=O)c1ccc(CN2CC(F)(F)C(F)(F)C2)cc1 [Example 24, N-(2-Sulfamoylphenylsulfonyl)-4-((3,3,4,4-tetrafluoropyrrolidin-1-yl)methyl)benzamide] | 2900 nM |
| CC(C)C#Cc1ccc(C(=O)NS(=O)(=O)c2ccccc2S(N)(=O)=O)cc1OCCC(C)(C)O [Example 25, 3-(3-Hydroxy-3-methylbutoxy)-4-(3-methylbut-1-ynyl)-N-(2-sulfamoylphenylsulfonyl)benzamide] | 130 nM |
| CC(C)C#Cc1ccc(C(=O)NS(=O)(=O)c2ccccc2S(N)(=O)=O)cc1OC(C)C [Example 26, 3-Isopropoxy-4-(3-methylbut-1-ynyl)-N-(2-sulfamoylphenylsulfonyl)benzamide] | 85 nM |
| COC(C)(C)CCOc1cc(C(=O)NS(=O)(=O)c2ccccc2S(N)(=O)=O)ccc1C#CC1CC1 [Example 27, 4-(Cyclopropylethynyl)-3-(3-methoxy-3-methylbutoxy)-N-(2-sulfamoylphenylsulfonyl)benzamide] | 85 nM |
| CC(C)C#Cc1ccc(C(=O)NS(=O)(=O)c2ccccc2S(N)(=O)=O)cc1OCC(C)C [Example 28, 3-Isobutoxy-4-(3-methylbut-1-ynyl)-N-(2-sulfamoylphenylsulfonyl)benzamide] | 20 nM |
| COc1cc(C(=O)NS(=O)(=O)c2ccccc2S(N)(=O)=O)ccc1OCc1ccc(C)cc1 [Example 29, 3-Methoxy-4-(4-methylbenzyloxy)-N-(2-sulfamoylphenylsulfonyl)benzamide] | 390 nM |
| NS(=O)(=O)c1ccccc1S(=O)(=O)NC(=O)c1ccc(OCc2ccccc2)c(OCCC(F)(F)F)c1 [Example 30, 4-(Benzyloxy)-N-(2-sulfamoylphenylsulfonyl)-3-(3,3,3-trifluoropropoxy)benzamide] | 130 nM |
| NS(=O)(=O)c1ccccc1S(=O)(=O)NC(=O)c1ccc(C#CC(O)(C2CC2)C2CC2)cc1 [Example 31, 4-(3,3-Dicyclopropyl-3-hydroxyprop-1-ynyl)-N-(2-sulfamoylphenylsulfonyl)benzamide] | 220 nM |
| CCCC(C)C#Cc1ccc(C(=O)NS(=O)(=O)c2ccccc2S(N)(=O)=O)cc1CO (stereo not shown) [Example 32, 3-(Hydroxymethyl)-4-(3-methylhex-1-ynyl)-N-(2-sulfamoylphenylsulfonyl)benzamide] | 60 nM |
| CC(C)Oc1cc(C(=O)NS(=O)(=O)c2ccccc2S(N)(=O)=O)ccc1C#Cc1ccc(C(F)(F)F)cc1 [Example 33, 3-Isopropoxy-N-(2-sulfamoylphenylsulfonyl)-4-((4-(trifluoromethyl)phenyl)ethynyl)benzamide] | 54 nM |
| CCCC(C)C#Cc1ccc(C(=O)NS(=O)(=O)c2ccccc2S(N)(=O)=O)cc1OCCOCC(F)(F)F (stereo not shown) [Example 34, 4-(3-Methylhex-1-ynyl)-N-(2-sulfamoylphenylsulfonyl)-3-(2-(2,2,2-trifluoroethoxy)ethoxy)benzamide] | 12 nM |
| CCCC(C)C#Cc1ccc(C(=O)NS(=O)(=O)c2ccccc2S(N)(=O)=O)cc1OCCC(F)(F)F (stereo not shown) [Example 35, 4-(3-Methylhex-1-ynyl)-N-(2-sulfamoylphenylsulfonyl)-3-(3,3,3-trifluoropropoxy)benzamide] | 14 nM |
